Data from article PMC10726920 (Cancer Medicine, 2023).

System: patients with acute lymphoblastic leukemia
Assay: Adverse events (CTCAE version 4.0), Phase II study NCI-9775 of sapanisertib monotherapy
Format: in vivo
Settings: treatment-related; 15 evaluable
Procedure: Responders could continue on the same dose or proceed to allogeneic hematopoietic cell transplant if available. Non‐responders (but tolerating drug) could increase their dose to 4 mg orally for 21 days every 28 days (dose level + 1) starting in Cycle 3 and 4 mg orally continuously (dose level + 2) starting in Cycle 5 (if they tolerated dose level + 1). Dose reduction was recommended for toxicity (dose level − 1: 2 mg daily for 21 days every 28 days; dose level − 2: 2 mg daily for 5 days/week for 3 weeks every 4 weeks). […] Intrathecal chemotherapy was allowed per institutional standard policies. In‐home blood glucose monitoring was performed daily to monitor blood sugar (a glucometer was given to every patient on the study). Discontinuation of therapy was recommended for disease progression, severe toxicity, lack of response, proceeding to hematopoietic cell transplant, or prolonged delay of the subsequent cycle (>1 month delay for therapy‐related toxicity or >2 months delay for unrelated toxicity).
The primary endpoint was the proportion of successes, which was estimated by the number of successes divided by the total number of evaluable patients. Secondary endpoints of duration of response (CR or CRi) and overall survival (OS) were evaluated using Kaplan–Meier techniques; the frequency of proceeding to allogeneic stem cell transplant after achieving response and adverse events (AEs), as evaluated using reported the NCI Common Terminology Criteria for Adverse Events (CTCAE) version 4.0, were presented using descriptive statistics.

## CC(C)n1nc(-c2ccc3oc(N)nc3c2)c2c(N)ncnc21 [sapanisertib]
  Aspartate aminotransferase increased grade 2: 0 (0) N (%)
  Aspartate aminotransferase increased grade 3: 0 (0) N (%)
  Aspartate aminotransferase increased grade 4: 0 (0) N (%)
  Aspartate aminotransferase increased grade 5: 0 (0) N (%)
  Bloating grade 1: 1 (7) N (%)
  Bloating grade 2: 0 (0) N (%)
  Bloating grade 3: 0 (0) N (%)
  Bloating grade 4: 0 (0) N (%)
  Bloating grade 5: 0 (0) N (%)
  Blood bilirubin increased grade 1: 1 (7) N (%)
  Blood bilirubin increased grade 2: 0 (0) N (%)
  Blood bilirubin increased grade 3: 1 (7) N (%)
  Blood bilirubin increased grade 4: 0 (0) N (%)
  Blood bilirubin increased grade 5: 0 (0) N (%)
  Confusion grade 1: 0 (0) N (%)
  Confusion grade 2: 0 (0) N (%)
  Confusion grade 3: 1 (7) N (%)
  Confusion grade 4: 0 (0) N (%)
  Confusion grade 5: 0 (0) N (%)
  Constipation grade 1: 1 (7) N (%)
  Constipation grade 2: 0 (0) N (%)
  Constipation grade 3: 0 (0) N (%)
  Constipation grade 4: 0 (0) N (%)
  Constipation grade 5: 0 (0) N (%)
  Cough grade 1: 1 (7) N (%)
  Cough grade 2: 0 (0) N (%)
  Cough grade 3: 0 (0) N (%)
  Cough grade 4: 0 (0) N (%)
  Cough grade 5: 0 (0) N (%)
  Delirium grade 1: 0 (0) N (%)
  Delirium grade 2: 0 (0) N (%)
  Delirium grade 3: 1 (7) N (%)
  Delirium grade 4: 0 (0) N (%)
  Delirium grade 5: 0 (0) N (%)
  Diarrhea grade 1: 1 (7) N (%)
  Diarrhea grade 2: 0 (0) N (%)
  Diarrhea grade 3: 0 (0) N (%)
  Diarrhea grade 4: 0 (0) N (%)
  Diarrhea grade 5: 0 (0) N (%)
  Dysgeusia grade 1: 1 (7) N (%)
  Dysgeusia grade 2: 0 (0) N (%)
  Dysgeusia grade 3: 0 (0) N (%)
  Dysgeusia grade 4: 0 (0) N (%)
  Dysgeusia grade 5: 0 (0) N (%)
  Edema limbs grade 1: 1 (7) N (%)
  Edema limbs grade 2: 0 (0) N (%)
  Edema limbs grade 3: 0 (0) N (%)
  Edema limbs grade 4: 0 (0) N (%)
  Edema limbs grade 5: 0 (0) N (%)
  Fall grade 1: 0 (0) N (%)
  Fall grade 2: 1 (7) N (%)
  Fall grade 3: 0 (0) N (%)
  Fall grade 4: 0 (0) N (%)
  Fall grade 5: 0 (0) N (%)
  Fatigue grade 1: 1 (7) N (%)
  Fatigue grade 2: 0 (0) N (%)
  Fatigue grade 3: 1 (7) N (%)
  Fatigue grade 4: 0 (0) N (%)
  Fatigue grade 5: 0 (0) N (%)
  Febrile neutropenia grade 1: 0 (0) N (%)
  Febrile neutropenia grade 2: 0 (0) N (%)
  Febrile neutropenia grade 3: 1 (7) N (%)
  Febrile neutropenia grade 4: 0 (0) N (%)
  Febrile neutropenia grade 5: 0 (0) N (%)
  Fibrinogen decreased grade 1: 0 (0) N (%)
  Fibrinogen decreased grade 2: 0 (0) N (%)
  Fibrinogen decreased grade 3: 1 (7) N (%)
  Fibrinogen decreased grade 4: 0 (0) N (%)
  Fibrinogen decreased grade 5: 0 (0) N (%)
  Hyperglycemia grade 1: 0 (0) N (%)
  Hyperglycemia grade 2: 0 (0) N (%)
  Hyperglycemia grade 3: 2 (13) N (%)
  Hyperglycemia grade 4: 0 (0) N (%)
  Hyperglycemia grade 5: 0 (0) N (%)
  Hypertriglyceridemia grade 1: 1 (7) N (%)
  Hypertriglyceridemia grade 2: 0 (0) N (%)
  Hypertriglyceridemia grade 3: 0 (0) N (%)
  Hypertriglyceridemia grade 4: 0 (0) N (%)
  Hypertriglyceridemia grade 5: 0 (0) N (%)
  Leukocytosis grade 1: 0 (0) N (%)
  Leukocytosis grade 2: 0 (0) N (%)
  Leukocytosis grade 3: 1 (7) N (%)
  Leukocytosis grade 4: 0 (0) N (%)
  Leukocytosis grade 5: 0 (0) N (%)
  Lymphocyte count decreased grade 1: 0 (0) N (%)
  Lymphocyte count decreased grade 2: 0 (0) N (%)
  Lymphocyte count decreased grade 3: 2 (13) N (%)
  Lymphocyte count decreased grade 4: 0 (0) N (%)
  Lymphocyte count decreased grade 5: 0 (0) N (%)
  Mucositis oral grade 1: 0 (0) N (%)
  Mucositis oral grade 2: 0 (0) N (%)
  Mucositis oral grade 3: 3 (20) N (%)
  Mucositis oral grade 4: 0 (0) N (%)
  Mucositis oral grade 5: 0 (0) N (%)
  Neoplasms grade 1: 0 (0) N (%)
  Neoplasms grade 2: 0 (0) N (%)
  Neoplasms grade 3: 1 (7) N (%)
  Neoplasms grade 4: 0 (0) N (%)
  Neoplasms grade 5: 0 (0) N (%)
  Neutrophil count decreased grade 1: 0 (0) N (%)
  Neutrophil count decreased grade 2: 0 (0) N (%)
  Neutrophil count decreased grade 3: 0 (0) N (%)
  Neutrophil count decreased grade 4: 1 (7) N (%)
  Neutrophil count decreased grade 5: 0 (0) N (%)
  Oral pain grade 1: 1 (7) N (%)
  Oral pain grade 2: 0 (0) N (%)
  Oral pain grade 3: 0 (0) N (%)
  Oral pain grade 4: 0 (0) N (%)
  Oral pain grade 5: 0 (0) N (%)
  Paresthesia grade 1: 1 (7) N (%)
  Paresthesia grade 2: 0 (0) N (%)
  Paresthesia grade 3: 0 (0) N (%)
  Paresthesia grade 4: 0 (0) N (%)
  Paresthesia grade 5: 0 (0) N (%)
  Pharyngolaryngeal pain grade 1: 0 (0) N (%)
  Pharyngolaryngeal pain grade 2: 1 (7) N (%)
  Pharyngolaryngeal pain grade 3: 0 (0) N (%)
  Pharyngolaryngeal pain grade 4: 0 (0) N (%)
  Pharyngolaryngeal pain grade 5: 0 (0) N (%)
  Platelet count decreased grade 1: 0 (0) N (%)
  Platelet count decreased grade 2: 0 (0) N (%)
  Platelet count decreased grade 3: 1 (7) N (%)
  Platelet count decreased grade 4: 3 (20) N (%)
  Platelet count decreased grade 5: 0 (0) N (%)
  Pneumonitis grade 1: 0 (0) N (%)
  Pneumonitis grade 2: 0 (0) N (%)
  Pneumonitis grade 3: 1 (7) N (%)
  Pneumonitis grade 4: 0 (0) N (%)
  Pneumonitis grade 5: 0 (0) N (%)
  Pruritus grade 1: 1 (7) N (%)
  Pruritus grade 2: 0 (0) N (%)
  Pruritus grade 3: 0 (0) N (%)
  Pruritus grade 4: 0 (0) N (%)
  Pruritus grade 5: 0 (0) N (%)
  Resp, thoracic, mediastinal grade 1: 0 (0) N (%)
  Resp, thoracic, mediastinal grade 2: 0 (0) N (%)
  Resp, thoracic, mediastinal grade 3: 0 (0) N (%)
  Resp, thoracic, mediastinal grade 4: 1 (7) N (%)
  Resp, thoracic, mediastinal grade 5: 0 (0) N (%)
  Vaginal inflammation grade 1: 0 (0) N (%)
  Vaginal inflammation grade 2: 1 (7) N (%)
  Vaginal inflammation grade 3: 0 (0) N (%)
  Vaginal inflammation grade 4: 0 (0) N (%)
  Vaginal inflammation grade 5: 0 (0) N (%)
  Vomiting grade 1: 1 (7) N (%)
  Vomiting grade 2: 0 (0) N (%)
  Vomiting grade 3: 0 (0) N (%)
  Vomiting grade 4: 0 (0) N (%)
  Vomiting grade 5: 0 (0) N (%)
  Wheezing grade 1: 0 (0) N (%)
  Wheezing grade 2: 1 (7) N (%)
  Wheezing grade 3: 0 (0) N (%)
  Wheezing grade 4: 0 (0) N (%)
  Wheezing grade 5: 0 (0) N (%)
  White blood cell decreased grade 1: 0 (0) N (%)
  White blood cell decreased grade 2: 0 (0) N (%)
  White blood cell decreased grade 3: 0 (0) N (%)
  White blood cell decreased grade 4: 2 (13) N (%)
  White blood cell decreased grade 5: 0 (0) N (%)
